Test results as given in patent US20150224089A1, “COMBINATIONS OF IKKi/TBK1 INHIBITORS WITH BETA ADRENERGIC AGONISTS OR SYMPATHETIC NERVOUS SYSTEM ACTIVATORS” (THE REGENTS OF THE UNIVERSITY OF MICHIGAN, priority 2014, published 2015).

Key:
[1] = system: epididymal adipose tissue; assay: cAMP levels in epididymal WAT after CL-316,243 injection in HFD-fed mice; type: in vivo; conditions: HFD mice pretreated with amlexanox 4 days; 20 min after CL-316,243 IP injection
Description: (§1) (A) Fold increase in serum FFA (left panel) and glycerol (right panel) levels 15 min after CL-316,243 injection in ND- or HFD-fed mice treated with amlexanox or vehicle control for 4 days. (B) Glycerol release from ex vivo epididymal (left panel) and inguinal (right panel) WATs after 1 hr pretreatment with amlexanox or vehicle. CL-316,243 treatment was started at time zero. (C) Immunoblots in inguinal WAT lysates from FIG. 5B after 60 min of CL-316,243 treatment. (D) cAMP levels in epididymal WAT 20 min after CL-316,243 (CL) or saline control injection in HFD-fed mice treated with amlexanox or vehicle control for 4 days. (E) Immunoblots in epididymal WAT 5 min after CL-316,243 or saline control injection in HFD-fed mice treated with amlexanox or vehicle control for 4 days. (F) Relative oxygen comsumption of mice in each treatment group.
(§2) To examine whether inhibition of TBK1 and IKKε with amlexanox reverses resistance to catecholamineinduced lipolysis in vivo by increasing stimulation of cAMP production, cAMP levels we measured in epididymal adipose tissue from mice on HFD after CL-316,243 IP injection. Levels of cAMP were increased after CL-316,243 IP injection in mice on HFD pretreated with amlexanox (FIG. 5D).

[2] = system: epididymal WAT; assay: Immunoblots (HSL phosphorylation) in epididymal WAT after CL-316,243 injection in HFD-fed mice; type: in vivo; conditions: HFD-fed mice pretreated with amlexanox 4 days; 5 min after CL-316,243 IP injection
Description: as §1, §2

[3] = system: white adipose tissues from mice on a HFD; assay: Glycerol release from ex vivo epididymal and inguinal white adipose tissue; conditions: ex vivo 1 hr pretreatment with amlexanox, CL-316,243 treatment, more pronounced in inguinal depot
Description: as §1, with “group. […]” for “group.”

[4] = system: 3T3-L1 adipocytes; assay: Ucp1 gene expression in 3T3-L1 adipocytes; type: cell-based; conditions: long-term treatment with TNFα
Description: (A) Fold increase in Ucp1 expression in 3T3-L1 adipocytes expressing empty vector, Flag-IKKε, or Flag-IKKε K38A following treatment with or without 10 μM ISO (black bars) or 10 μM CL-316,243 (CL, gray bars) for 4 hr. (B) Glycerol release from 3T3-L1 adipocytes expressing empty vector (white bars), Flag-IKKε (black bars), or Flag-IKKε K38A (gray bars) treated with or without 10 μM ISO or 10 μM CL. (C) Immunoblots of whole cell lysates from FIG. 1B. Results were replicated in triplicate. D.E. stands for dark exposure and L.E. stands for light exposure. (D) Immunoblots of whole cell lysates from 3T3-L1 adipocytes expressing empty vector or Flag-IKKε treated with or without 50 μM FSK for 15 min. (E) cAMP levels from 3T3-L1 adipocytes expressing empty vector, Flag-IKKε, or Flag-IKKε K38A treated with or without 10 μM ISO or 50 μM FSK for 15 min.
Sympathetic activation of adipose tissue is involved in maintaining energy balance by stimulating lipolysis and fat oxidation (Coppack et al., 1994; Langin, 2006; Festuccia et al., 2011; herein incorporated by reference in their entireties). Activation of β-adrenergic signaling by either β-adrenergic agonists or cold exposure in white and brown adipose tissue initiates a cascade of events through cyclic AMP (cAMP), culminating in the transcriptional upregulation of Ucp1, which results in increased proton leak and energy expenditure (Himms-Hagen et al., 2000; Cao et al., 2004; Yehuda-Shnaidman et al., 2010; herein incorporated by reference in their entireties). […] This effect was further analyzed by overexpressing IKKε in 3T3-L1 adipocytes and examining Ucp1 gene expression after treatment with the non-selective β-adrenergic agonist, isoproterenol (ISO), or the β3-adrenergic agonist, CL-316,243. Fold difference in Ucp1 gene expression was calculated by normalization of relative Ucp1 mRNA levels in treated relative to control samples. […] The induction of Ucp1 gene expression in response to ISO or CL-316,243 was blunted when WT IKKε was overexpressed in these cells. […]

Compound | cAMP levels in epididymal adipose tissue [1] | HSL phosphorylation in epididymal WAT [2] | glycerol release from white adipose tissues [3] | induction of Ucp1 gene expression in response to β-adrenergic stimuli [4]
CC(C)c1ccc2oc3nc(N)c(C(=O)O)cc3c(=O)c2c1 [amlexanox, 2-amino-7-isopropyl-1-azaxanthone-3-carboxylic acid; 2-amino-7-isopropyl-5-oxo-5H-chromeno[2,3-b]pyridine-3-carboxylic acid] | increased | increased | enhanced glycerol release | 
TNFα |  |  |  | repressed
